Measurements published in paper PMC3551932, “STK295900, a Dual Inhibitor of Topoisomerase 1 and 2, Induces G2 Arrest in the Absence of DNA Damage” (PLoS ONE, 2013).

Tests used:
K-562 cells = test: Cell growth inhibition assay, K-562; type: cell-based; settings: Homo sapiens, K562, 96 h; Table 1; K-562, leukemia; growth up to 4 days
Description: (§1) Human epitheloid cervical carcinoma HeLa cells, human breast adenocarcinoma MCF7 and MDA-MB-231cells, human hepatocellular carcinoma HepG2 cells, human colon adenocarcinoma HT-29 cells, and human colorectal carcinoma HCT-116 cells were purchased from ATCC® and maintained in DMEM medium. Human prostate carcinoma PC-3 cells (purchased from ATCC®), human gastric carcinoma SNU-484 and SNU-601(obtained from Korean Cell Line Bank (KCLB)), human leukemia K-562 and HL-60 cells (purchased from ATCC®), immortalized human prostate epithelial 267B1cells, and immortalized human embryonic lung fibroblast MRC5CV1 cells were maintained in RPMI 1640 medium whereas immortalized retinal pigment epithelial hTERT RPE-1 cells (purchased from ATCC®) were maintained in DMEM/F12 medium. All cell lines were cultured in media supplemented with 10% fetal bovine serum, 100 U/ml penicillin, and […] streptomycin at 37°C in a 5% CO2 incubator.
(§2) Cells were seeded at the appropriate amount (1–2×10^3 cells) in triplicate in 96-well plates for 24 h and then treated with various concentrations of STK295900. Cell growth was determined by using EZ-CyTox cell viability assay kit (Daeil Lab. Service, Seoul, Korea). Ten microliters of WST solution were added to the treated cells at 24, 48, 72, and 96 h. Cells were further incubated at 37°C for 2 h and the absorbance was measured at 450 nm.

HCT-116 cells = test: Cell growth inhibition assay, HCT-116; type: cell-based; settings: Homo sapiens, 96 h, Table 1, growth up to 4 days
Description: as §1, §2

MDA-MB-231 cells = test: Cell growth inhibition assay, MDA-MB-231; type: cell-based; settings: Homo sapiens, 96 h; Table 1; MDA-MB-231, breast adenocarcinoma; growth up to 4 days
Description: as §1, §2

SNU-484 cells = test: Cell growth inhibition assay, SNU-484; type: cell-based; settings: Homo sapiens, 96 h; Table 1; SNU-484, gastric carcinoma; growth up to 4 days
Description: as §1, §2

[1] = test system: cancer (HeLa, MCF7, HepG2, and HT-29) and non-cancerous cell lines (hTERT RPE-1, 267B1, and MRC5CV1); test: Cell growth inhibition assay, cancer and non-cancerous cell lines compared; type: cell-based, human; settings: cancer (HeLa, MCF7, HepG2, HT-29) vs non-cancer (hTERT RPE-1, 267B1, MRC5CV1)
Description: as §1, §2

HeLa cells [2] = test: Cell growth inhibition assay, HeLa; type: cell-based, human; settings: Homo sapiens, 96 h, growth up to 4 days
Description: as §1, §2

HL-60 cells = test: Cell growth inhibition assay, HL-60; type: cell-based; settings: Homo sapiens, 96 h; Table 1; HL-60, leukemia; growth up to 4 days
Description: as §1, §2

DNA gyrase = settings: targeting DNA gyrase; cited from earlier work
MCF7 cells = test: Cell growth inhibition assay, MCF7; type: cell-based, human; settings: Homo sapiens, MCF7, 96 h, growth up to 4 days
Description: as §1, §2

HeLa cells [3] = test: Antagonistic effect on Top poison-induced DNA damage (γ-H2A.X immunoblot); type: cell-based, human
Protocol: Cells were lysed with cold RIPA buffer (50 mM Tris-HCl pH 8.0, 150 mM NaCl, 1% NP-40, 0.5% sodium deoxycholate, 0.1% SDS) containing freshly added protease inhibitor, phosphatase inhibitor (SIGMA), 1 mM DTT, and 1 mM Na3VO4 on ice for 1 h. Whole cell lysates were centrifuged at 15,000 rpm for 20 min and then the supernatant was transferred into a new tube. An appropriate amount of cell lysate was subjected to SDS-PAGE. Then the resolved proteins were transferred onto a PVDF membrane (Bio-Rad) for immunoblot analyses with specific antibodies. The proteins were detected using chemiluminescence solution (Thermo Scientific, Rockford, IL).
(§3) Supercoiled DNA relaxation assay for (A) topoisomerase 1 (Top 1) and (B) topoisomerase 2 (Top 2). Supercoiled pBR322 plasmid DNA was incubated at 37°C for 30 min with Top 1 enzyme (A) or Top 2α (B) in the presence of various concentrations of indicated compounds. DNA samples were separated by electrophoresis on a 1% agarose gel, stained with ethidium bromide, and visualized by UV light. (−), supercoiled DNA alone; oc, open circular; sc, supercoiled. […] HeLa cells were pretreated with 10 µM of STK295900 for 30 min and then incubated with the indicated concentrations of camptothecin for 1 h. Treated cells were lysed and subjected to immunoblot analyses with antibody against γ-H2A.X. β-actin was used as a loading control. […] HeLa cells were pretreated with STK295900 at 10, 20, 30, or 50 µM or ICRF-193 at 10 µM for 30 min. […] Treated cells were then lysed and subjected to immunoblot analyses with antibody against γ-H2A.X. β-actin was used as a loading control.
The lysates were subjected to immunoblot analyses with γ-H2A.X antibody.

human topoisomerase 2α = human topoisomerase 2α (Homo sapiens, UniProt P11388); test: Supercoiled DNA relaxation assay for topoisomerase 2α; type: biochemical; settings: pBR322, 37°C, 30 min
Chain of human topoisomerase 2α (P11388 whole entry): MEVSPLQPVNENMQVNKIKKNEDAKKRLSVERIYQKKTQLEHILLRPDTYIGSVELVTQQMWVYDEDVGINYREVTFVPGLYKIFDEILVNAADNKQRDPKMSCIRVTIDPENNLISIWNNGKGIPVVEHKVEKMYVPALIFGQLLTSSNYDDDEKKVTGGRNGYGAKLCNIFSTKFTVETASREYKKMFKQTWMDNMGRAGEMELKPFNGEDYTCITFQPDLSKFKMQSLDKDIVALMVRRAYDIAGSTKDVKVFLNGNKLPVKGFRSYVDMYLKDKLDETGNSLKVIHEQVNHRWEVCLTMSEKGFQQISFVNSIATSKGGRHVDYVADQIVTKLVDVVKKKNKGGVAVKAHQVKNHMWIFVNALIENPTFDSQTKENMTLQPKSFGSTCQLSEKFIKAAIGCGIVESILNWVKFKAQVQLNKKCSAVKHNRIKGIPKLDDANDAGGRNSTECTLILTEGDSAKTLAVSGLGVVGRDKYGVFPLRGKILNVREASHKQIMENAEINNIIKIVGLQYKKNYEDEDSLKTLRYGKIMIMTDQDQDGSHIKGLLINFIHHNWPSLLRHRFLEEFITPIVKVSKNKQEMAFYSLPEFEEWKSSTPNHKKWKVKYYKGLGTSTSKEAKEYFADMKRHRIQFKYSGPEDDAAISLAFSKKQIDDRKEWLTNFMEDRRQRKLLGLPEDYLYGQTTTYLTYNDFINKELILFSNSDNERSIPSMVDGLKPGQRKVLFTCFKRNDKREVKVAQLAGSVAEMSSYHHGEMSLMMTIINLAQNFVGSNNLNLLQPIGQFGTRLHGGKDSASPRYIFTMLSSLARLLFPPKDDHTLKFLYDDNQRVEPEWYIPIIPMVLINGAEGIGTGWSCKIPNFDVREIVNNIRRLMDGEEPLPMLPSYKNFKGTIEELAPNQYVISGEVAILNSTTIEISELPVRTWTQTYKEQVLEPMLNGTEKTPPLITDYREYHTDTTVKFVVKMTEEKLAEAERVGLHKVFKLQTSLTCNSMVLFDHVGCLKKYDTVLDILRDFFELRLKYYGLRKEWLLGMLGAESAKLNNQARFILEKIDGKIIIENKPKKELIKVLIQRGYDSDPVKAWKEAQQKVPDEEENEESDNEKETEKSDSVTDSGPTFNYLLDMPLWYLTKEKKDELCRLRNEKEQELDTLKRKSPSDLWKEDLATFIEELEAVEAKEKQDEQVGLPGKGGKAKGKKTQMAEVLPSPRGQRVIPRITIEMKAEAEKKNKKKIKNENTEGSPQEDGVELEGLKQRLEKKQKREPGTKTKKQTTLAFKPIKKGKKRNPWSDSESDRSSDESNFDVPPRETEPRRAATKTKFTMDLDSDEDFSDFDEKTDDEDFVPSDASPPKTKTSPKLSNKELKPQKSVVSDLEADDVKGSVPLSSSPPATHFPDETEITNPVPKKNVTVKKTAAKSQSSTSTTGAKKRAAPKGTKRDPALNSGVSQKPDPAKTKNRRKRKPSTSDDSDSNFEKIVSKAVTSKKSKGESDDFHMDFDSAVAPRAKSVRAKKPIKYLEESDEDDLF
Protocol: After incubation, the reaction was terminated by addition of 2 µl of 10% SDS. The reaction mixtures were treated with 50 µg/ml proteinase K for 30 min at 37°C and then DNA was extracted with CIA (chloroform:isoamyl alcohol, 24∶1). Samples were resolved by electrophoresis on a 1% agarose gel. After staining the electrophoresed gel with ethidium bromide, DNA bands were visualized by UV light and photographed on Gel Doc XR.
as §3

SMILES: Nc1ccc(-c2nc3ccc(-c4ccc5nc(-c6ccc(N)cc6)[nH]c5c4)cc3[nH]2)cc1 [STK295900, 4,4′-(3H,3′H-5,5′-bibenzimidazole-2,2′-diyl)dianiline]
- IC50 (K-562 cells): 1.38 µM
- IC50 (HCT-116 cells): 2.83 µM
- IC50 (MDA-MB-231 cells): 0.51 µM
- IC50 (SNU-484 cells): 1.21 µM
- selectivity of toxicity, cancer versus non-cancer cells [1]: selective toxicity against cancer cells
- IC50 (HeLa cells [2]; Table 1, cervical carcinoma): 0.52 µM
- IC50 (HeLa cells [2]; Table 2 comparison): 0.64 µM
- IC50 (HL-60 cells): 0.5 µM
- anti-staphylococcal activity (DNA gyrase): potent anti-staphylococcal agent
- IC50 (MCF7 cells; Table 1, MCF7, breast adenocarcinoma): 0.06 µM
- IC50 (MCF7 cells; Table 2 comparison, MCF7): 0.04 µM
- effect of pretreatment on etoposide-induced γ-H2A.X (HeLa cells [3]; pretreated up to 50 µM for 30 min, then 10 µM etoposide 1 h): could not prevent
- effect of pretreatment on camptothecin-induced γ-H2A.X (HeLa cells [3]; pretreated with 10 µM for 30 min, then camptothecin 1 h): dramatically reduced
- Top 2α-mediated DNA relaxation (human topoisomerase 2α): inhibited Top 2α-mediated DNA relaxation
